Patent publication US20240101531A1, “PYRIDINAMINE DERIVATIVES AND THEIR USE AS POTASSIUM CHANNEL MODULATORS” (Xenon Pharmaceuticals Inc., priority 2022, published 2024)
Where a name gives a salt, the structure may show the parent alone.

biological target: human KV7.2/KV7.3 (Homo sapiens (Human), UniProt O43525+O43526); test: Potassium flux assay (IPG-2 AM dye); type: cell-based; details: TREX HEK 293 or HEK 293 cells expressing human KV7.2/KV7.3; arithmetic mean values
In short: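 EC50 from 16 concentrations (2-fold dilutions, top 30 μM), scaled between DMSO baseline and a known KV7.x modulator maximum. Signal is IPG-2 AM fluorescence (ex 530/em 558 nm) after 10 mM KCl challenge buffer addition, following 20 min room-temperature compound exposure of HEK 293 or TREX HEK 293 cells stably expressing human KV7.2/KV7.3.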

Compound | EC50
Cn1nccc1-c1ccc2c(Nc3ccc(Cl)nc3)nccc2c1 [Example 422, N-(6-chloropyridin-3-yl)-6-(1-methyl-1H-pyrazol-5-yl)isoquinolin-1-amine] | 1 to 10 µM
Cc1ncc(Nc2nccc3cc(OCc4ccn(C)n4)ccc23)cn1 [Example 206, 6-((1-methyl-1H-pyrazol-3-yl)methoxy)-N-(2-methylpyrimidin-5-yl)isoquinolin-1-amine] | 1 to 10 µM
Cn1cnc(COc2ccc3c(Nc4ccc(Cl)nc4)nccc3c2)n1 [Example 307, N-(6-chloropyridin-3-yl)-6-((1-methyl-1H-1,2,4-triazol-3-yl)methoxy)isoquinolin-1-amine] | 1 to 10 µM
C[C@@H](COc1ccc2c(Nc3ccc(Cl)nc3)nccc2c1)c1cnn(C)c1 [Example 159, (R)—N-(6-chloropyridin-3-yl)-6-(2-(1-methyl-1H-pyrazol-4-yl)propoxy)isoquinolin-1-amine] | 1 to 10 µM
Cc1ncc(Nc2nccc3cc(OCc4cncnc4)ccc23)cn1 [Example 308, N-(2-methylpyrimidin-5-yl)-6-(pyrimidin-5-ylmethoxy)isoquinolin-1-amine] | 1 to 10 µM
Clc1ccc(Nc2nccc3cc(OCc4ccncc4)ccc23)cn1 [Example 192, N-(6-chloropyridin-3-yl)-6-(pyridin-4-ylmethoxy)isoquinolin-1-amine] | < 1 µM
Cc1ccc(COc2ccc3c(Nc4ccc(Cl)nc4)nccc3c2)cn1 [Example 194, N-(6-chloropyridin-3-yl)-6-((6-methylpyridin-3-yl)methoxy)isoquinolin-1-amine] | < 1 µM
Clc1ccc(Nc2nccc3cc[nH]c23)cn1 [Example 14, N-(6-chloropyridin-3-yl)-1H-pyrrolo[2,3-c]pyridin-7-amine] | 1 to 10 µM
Cc1cn(C)nc1COc1ccc2c(Nc3ccc(Cl)nc3)nccc2c1 [Example 204, N-(6-chloropyridin-3-yl)-6-((1,4-dimethyl-1H-pyrazol-3-yl)methoxy)isoquinolin-1-amine] | 1 to 10 µM
Cc1ncc(Nc2nccc3cc(OCC4CC4)ccc23)cn1 [Example 24, 6-(cyclopropylmethoxy)-N-(2-methylpyrimidin-5-yl)isoquinolin-1-amine] | 1 to 10 µM
CO[C@H](C)c1ccc2c(Nc3ccc(Cl)nc3)nccc2c1 [Example 132, (R)-N-(6-chloropyridin-3-yl)-6-(1-methoxyethyl)isoquinolin-1-amine] | 10 to 30 µM
Clc1ccc(Nc2nccc3cc(OCCCn4ccnc4)ccc23)cn1 [Example 185, 6-(3-(1H-imidazol-1-yl)propoxy)-N-(6-chloropyridin-3-yl)isoquinolin-1-amine] | 1 to 10 µM
Cc1ncc(Nc2nccc3cc(OCc4cnn(C)c4)cnc23)cn1 [Example 258, 3-((1-methyl-1H-pyrazol-4-yl)methoxy)-N-(2-methylpyrimidin-5-yl)-1,7-naphthyridin-8-amine] | 1 to 10 µM
Clc1ccc(Nc2nccc3cc(OCCn4ccnc4)ccc23)cn1 [Example 74, 6-(2-(1H-imidazol-1-yl)ethoxy)-N-(6-chloropyridin-3-yl)isoquinolin-1-amine] | ≥ 30 µM
Clc1ccc(Nc2nccc3cc(OCc4cn[nH]c4)ccc23)cn1 [Example 334, 6-((1H-pyrazol-4-yl)methoxy)-N-(6-chloropyridin-3-yl)isoquinolin-1-amine] | < 1 µM
N#CC1(COc2ccc3c(Nc4cnc(Cl)nc4)nccc3c2)CCC1 [Example 369, 1-(((1-((2-chloropyrimidin-5-yl)amino)isoquinolin-6-yl)oxy)methyl)cyclobutane-1-carbonitrile] | < 1 µM
N#C[C@H]1C[C@](F)(COc2ccc3c(Nc4cnc(Cl)nc4)nccc3c2)C1 [Example 64, (1s,3s)-3-(((1-((2-chloropyrimidin-5-yl)amino)isoquinolin-6-yl)oxy)methyl)-3-fluorocyclobutane-1-carbonitrile] | < 1 µM
Cc1nn(C)cc1COc1ccc2c(Nc3ccc(Cl)nc3)nccc2c1 [Example 165, N-(6-chloropyridin-3-yl)-6-((1,3-dimethyl-1H-pyrazol-4-yl)methoxy)isoquinolin-1-amine] | < 1 µM
Clc1ccc(Nc2nccc3cc(OCc4ccncn4)ccc23)cn1 [Example 51, N-(6-chloropyridin-3-yl)-6-(pyrimidin-4-ylmethoxy)isoquinolin-1-amine] | 1 to 10 µM
CC1(COc2cnc3c(Nc4ccc(Cl)nc4)nccc3c2)COC1 [Example 259, N-(6-chloropyridin-3-yl)-3-((3-methyloxetan-3-yl)methoxy)-1,7-naphthyridin-8-amine] | 1 to 10 µM
N#CC12CC(COc3ccc4c(Nc5cnc(Cl)nc5)nccc4c3)(C1)C2 [Example 40, 3-(((1-((2-chloropyrimidin-5-yl)amino)isoquinolin-6-yl)oxy)methyl)bicyclo[1.1.1]pentane-1-carbonitrile] | < 1 µM
Cc1n[nH]c(C)c1COc1ccc2c(Nc3ccc(Cl)nc3)nccc2c1 [Example 338, N-(6-chloropyridin-3-yl)-6-((3,5-dimethyl-1H-pyrazol-4-yl)methoxy)isoquinolin-1-amine] | 1 to 10 µM
FC(F)Cn1cc(COc2ccc3c(Nc4ccc(Cl)nc4)nccc3c2)cn1 [Example 380, N-(6-chloropyridin-3-yl)-6-((1-(2,2-difluoroethyl)-1H-pyrazol-4-yl)methoxy)isoquinolin-1-amine] | < 1 µM
Clc1ncc(Nc2nccc3cc(OCCc4cn[nH]c4)ccc23)cn1 [Example 390, 6-(2-(1H-pyrazol-4-yl)ethoxy)-N-(2-chloropyrimidin-5-yl)isoquinolin-1-amine formate] | < 1 µM
Clc1ccc(Nc2nccc3cc(OCc4cncnc4)ccc23)cn1 [Example 182, N-(6-chloropyridin-3-yl)-6-(pyrimidin-5-ylmethoxy)isoquinolin-1-amine] | < 1 µM
NC(=O)C1(Oc2ccc3c(Nc4cnc(Cl)nc4)nccc3c2)CC1 [Example 61, 1-((1-((2-chloropyrimidin-5-yl)amino)isoquinolin-6-yl)oxy)cyclopropane-1-carboxamide] | 1 to 10 µM

The next lines start with the values.

EC50 | Compound
1 to 10 µM | OCC1(COc2ccc3c(Nc4ccc(Cl)nc4)nccc3c2)COC1 [Example 329, (3-(((1-((6-chloropyridin-3-yl)amino)isoquinolin-6-yl)oxy)methyl)oxetan-3-yl)methanol]
< 1 µM | FC1(F)CCC(Oc2ccc3c(Nc4ccc(Cl)nc4)nccc3c2)CC1 [Example 93, N-(6-chloropyridin-3-yl)-6-((4,4-difluorocyclohexyl)oxy)isoquinolin-1-amine]
< 1 µM | OC1CC2(C1)CC(Oc1ccc3c(Nc4ccc(Cl)nc4)nccc3c1)C2 (stereo not drawn) [Example 153, 6-((1-((6-chloropyridin-3-yl)amino)isoquinolin-6-yl)oxy)spiro[3.3]heptan-2-ol]
< 1 µM | FC1(COc2ccc3c(Nc4ccc(Cl)nc4)nccc3c2)CC1 [Example 181, N-(6-chloropyridin-3-yl)-6-((1-fluorocyclopropyl)methoxy)isoquinolin-1-amine]
1 to 10 µM | FC(F)CN1CCC(Oc2ccc3c(Nc4ccc(Cl)nc4)nccc3c2)CC1 [Example 315, N-(6-chloropyridin-3-yl)-6-((1-(2,2-difluoroethyl)piperidin-4-yl)oxy)isoquinolin-1-amine]
1 to 10 µM | CC(C)(C#N)COc1ccc2c(Nc3ccc(Cl)nc3)nccc2c1 [Example 78, 3-((1-((6-chloropyridin-3-yl)amino)isoquinolin-6-yl)oxy)-2,2-dimethylpropanenitrile]
< 1 µM | NS(=O)(=O)C1(COc2ccc3c(Nc4ccc(Cl)nc4)nccc3c2)CCC1 [Example 294, 1-(((1-((6-chloropyridin-3-yl)amino)isoquinolin-6-yl)oxy)methyl)cyclobutane-1-sulfonamide]
< 1 µM | CC(=O)N[C@H]1CC[C@@H](Oc2ccc3c(Nc4ccc(Cl)nc4)nccc3c2)CC1 [Example 316, N-(cis-4-((1-((6-chloropyridin-3-yl)amino)isoquinolin-6-yl)oxy)cyclohexyl)acetamide]
1 to 10 µM | Clc1ccc(Nc2nccc3cc(OCCN4CCOCC4)ccc23)cn1 [Example 201, N-(6-chloropyridin-3-yl)-6-(2-morpholinoethoxy)isoquinolin-1-amine]
1 to 10 µM | CS(=O)(=Nc1ccc2c(Nc3ccc(Cl)nc3)nccc2c1)C1COC1 (stereo in doubt) [Example 276, (S)-((1-((6-chloropyridin-3-yl)amino)isoquinolin-6-yl)imino)(methyl)(oxetan-3-yl)-λ^6-sulfanone)]
< 1 µM | FC1(COc2ccc3c(Nc4ccc(Cl)nc4)nccc3c2)CCOC1 (stereo in doubt) [Example 364, (R)—N-(6-chloropyridin-3-yl)-6-((3-fluorotetrahydrofuran-3-yl)methoxy)isoquinolin-1-amine]
< 1 µM | FC1(COc2ccc3c(Nc4ccc(Cl)nc4)nccc3c2)CCOC1 (stereo not drawn) [Example 363, N-(6-chloropyridin-3-yl)-6-((3-fluorotetrahydrofuran-3-yl)methoxy)isoquinolin-1-amine]
10 to 30 µM | Clc1ccc(Nc2nccc3cc(OCCN4CC5(CCC5)C4)ccc23)cn1 [Example 71, 6-(2-(2-azaspiro[3.3]heptan-2-yl)ethoxy)-N-(6-chloropyridin-3-yl)isoquinolin-1-amine]
< 1 µM | Clc1ccc(Nc2nccc3cc(OCc4ccno4)ccc23)cn1 [Example 157, N-(6-chloropyridin-3-yl)-6-(isoxazol-5-ylmethoxy)isoquinolin-1-amine]
< 1 µM | Clc1ccc(Nc2nccc3cc(OC4CC5(COC5)C4)ccc23)cn1 [Example 113, 6-((2-oxaspiro[3.3]heptan-6-yl)oxy)-N-(6-chloropyridin-3-yl)isoquinolin-1-amine]
< 1 µM | COC1(COc2ccc3c(Nc4ccc(Cl)nc4)nccc3c2)COC1 [Example 220, N-(6-chloropyridin-3-yl)-6-((3-methoxyoxetan-3-yl)methoxy)isoquinolin-1-amine]
